Results on 26 compounds are retold here after patent publication US20210355104A1, “ADENOSINE RECEPTOR BINDING COMPOUNDS” (Nikang Therapeuticsm Inc., priority 2018, published 2021).

Where “and” joins values, the source holds several entries; their conditions need not be identical. Equal values may be shown once.

Adenosine A2A receptor, sequence (P29274 whole entry): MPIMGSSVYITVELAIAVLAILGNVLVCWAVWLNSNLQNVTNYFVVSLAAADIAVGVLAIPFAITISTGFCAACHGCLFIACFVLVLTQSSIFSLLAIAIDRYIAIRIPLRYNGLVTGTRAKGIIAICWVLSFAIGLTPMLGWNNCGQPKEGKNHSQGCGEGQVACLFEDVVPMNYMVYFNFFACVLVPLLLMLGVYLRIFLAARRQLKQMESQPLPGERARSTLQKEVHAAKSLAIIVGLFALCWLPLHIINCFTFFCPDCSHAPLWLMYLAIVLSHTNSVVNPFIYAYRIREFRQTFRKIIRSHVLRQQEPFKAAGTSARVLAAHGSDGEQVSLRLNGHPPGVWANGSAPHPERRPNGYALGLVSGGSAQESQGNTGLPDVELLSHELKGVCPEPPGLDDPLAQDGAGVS

The first test concerns the target Adenosine A2A receptor (Homo sapiens, UniProt P29274). The experiment in a line: cAMP assay in 293A cells stably expressing the adenosine A2A receptor (CGS21680 stimulation, HTRF). It counts as cell-based. Also on record: expressed in transfected cells; host or cells: 293A cells (Invitrogen, Cat# R705-07) infected with A2A-expressing lentivirus (custom packaged by Biosettia), puromycin selected. The conditions noted are these: 293A cells stably expressing A2A receptor; 0.1% BSA; 1 uM CGS21680 stimulation; replicate values separated by /; read-out: cAMP (nM) 0.1% BSA, 1 uM CGS. A general note: Cyclic AMP is a second messenger, typically raised through Gs and lowered through Gi signalling.
For `Cc1cc(-c2c(OCc3cc(C(C)(C)O)cc(-c4nnnn4C)n3)nc(N)nc2-c2ccc(F)cc2)cc(C(F)F)n1` [Example 426, 2-(2-(((2-amino-5-(2-(difluoromethyl)-6-methylpyridin-4-yl)-6-(4-fluorophenyl)pyrimidin-4-yl)oxy)methyl)-6-(1-methyl-1H-tetrazol-5-yl)pyridin-4-yl)propan-2-ol], the IC50 was 7980 nM and 6190 nM. On the same count and under the same terms, next, `Cc1cc(-c2c(OCc3cccc(CN)n3)nc(N)nc2-c2ccc(F)cc2)cc(C(F)F)n1` [Example 412, 4-((6-(aminomethyl)pyridin-2-yl)methoxy)-5-(2-(difluoromethyl)-6-methylpyridin-4-yl)-6-(4-fluorophenyl)pyrimidin-2-amine]: 503 nM and 747 nM.

Still in this test, the particulars now being: 293A-A2AR cells, 0.1% BSA, 8 nM CGS; values separated by / are repeat determinations; read-out: cAMP (nM) 0.1% BSA, 8 nM CGS.
Turning to `CC(=O)Nc1ccc(CCOc2nc(N)nc(-c3ccccc3)c2-c2cc(C)nc(C(F)(F)F)c2)cc1` [Example 9, N-(4-(2-((2-amino-5-(2-methyl-6-(trifluoromethyl)pyridin-4-yl)-6-phenylpyrimidin-4-yl)oxy)ethyl)phenyl)acetamide], the IC50 is 5.7 nM and 14 nM.

The same test, now with this note: 293A-A2AR cells, 0.1% BSA, 1 uM CGS; read-out: cAMP (nM) 0.1% BSA, 1 uM CGS.
As to `Cc1cc(-c2c(OCc3cccc(N4CC[C@@H](C(=O)O)C4)n3)nc(N)nc2-c2ccc(F)cc2)cc(C(F)F)n1` [Example 310, (R)-1-(6-(((2-amino-5-(2-(difluoromethyl)-6-methylpyridin-4-yl)-6-(4-fluorophenyl)pyrimidin-4-yl)oxy)methyl)pyridin-2-yl)pyrrolidine-3-carboxylic acid], the IC50 came to 2490 nM. On to `Cc1cc(-c2c(OCc3nc4cc(C(C)(C)C(=O)O)ccc4n3C)nc(N)nc2-c2ccc(F)cc2)cc(C(F)F)n1` [Example 369, 2-(2-(((2-amino-5-(2-(difluoromethyl)-6-methylpyridin-4-yl)-6-(4-fluorophenyl)pyrimidin-4-yl)oxy)methyl)-1-methyl-1H-benzo[d]imidazol-5-yl)-2-methylpropanoic acid], for which the IC50 was more than 25000 nM. For the compound `CCn1[nH]c(=O)cc1COc1nc(N)nc(-c2ccc(F)cc2)c1-c1cc(C)nc(C(F)F)c1` [Example 330, 5-(((2-amino-5-(2-(difluoromethyl)-6-methylpyridin-4-yl)-6-(4-fluorophenyl)pyrimidin-4-yl)oxy)methyl)-1-ethyl-1,2-dihydro-3H-pyrazol-3-one], the IC50 was determined as 2550 nM. With `CCc1nnn(CC(=O)O)c1COc1nc(N)nc(-c2ccc(F)cc2)c1-c1cc(C)nc(C(F)F)c1` [Example 233, 2-(5-(((2-amino-5-(2-(difluoromethyl)-6-methylpyridin-4-yl)-6-(4-fluorophenyl)pyrimidin-4-yl)oxy)methyl)-4-ethyl-1H-1,2,3-triazol-1-yl)acetic acid], the IC50 was found to be 16300 nM.

For the compound `Cc1cc(-c2c(OCc3cc4ccccc4s3)nc(N)nc2-c2ccc(F)cc2)cc(C(F)F)n1` [Example 343, 4-(benzo[b]thiophen-2-ylmethoxy)-5-(2-(difluoromethyl)-6-methylpyridin-4-yl)-6-(4-fluorophenyl)pyrimidin-2-amine], the IC50 is 1340 nM.

In the case of `Cc1cc(-c2c(OCC3CC(C(=O)O)C3)nc(N)nc2-c2ccc(F)cc2)cc(C(F)F)n1` (centres unmarked) [Example 325, 3-(((2-amino-5-(2-(difluoromethyl)-6-methylpyridin-4-yl)-6-(4-fluorophenyl)pyrimidin-4-yl)oxy)methyl)cyclobutane-1-carboxylic acid], the IC50 was more than 25000 nM. For the compound `Cc1cc(-c2c(OCc3nnn[nH]3)nc(N)nc2-c2ccc(F)cc2)cc(C(F)F)n1` [Example 269, 4-((1H-tetrazol-5-yl)methoxy)-5-(2-(difluoromethyl)-6-methylpyridin-4-yl)-6-(4-fluorophenyl)pyrimidin-2-amine], the IC50 is more than 25000 nM. Turning to `Cc1cc(-c2c(OCc3nc(C(C)(C)O)cs3)nc(N)nc2-c2ccc(F)cc2)cc(C(F)F)n1` [Example 366, 2-(2-(((2-amino-5-(2-(difluoromethyl)-6-methylpyridin-4-yl)-6-(4-fluorophenyl)pyrimidin-4-yl)oxy)methyl)thiazol-4-yl)propan-2-ol], the IC50 turned out to be 1690 nM. Consider `Cc1cc(-c2c(OCc3ccccn3)nc(NCC(=O)O)nc2-c2ccc(F)cc2)cc(C(F)F)n1` [Example 364, (5-(2-(difluoromethyl)-6-methylpyridin-4-yl)-4-(4-fluorophenyl)-6-(pyridin-2-ylmethoxy)pyrimidin-2-yl)glycine], for which the IC50 was more than 25000 nM. For the compound `CCn1nnc(COc2nc(N)nc(-c3cccc(C#N)c3C)c2-c2cc(C)nc(C(F)F)c2)n1` [Example 237, 3-(2-amino-5-(2-(difluoromethyl)-6-methylpyridin-4-yl)-6-((2-ethyl-2H-tetrazol-5-yl)methoxy)pyrimidin-4-yl)-2-methylbenzonitrile], the IC50 was determined as 2120 nM. As for `CCc1nn(CC(C)(C)C(=O)O)nc1COc1nc(N)nc(-c2ccc(F)cc2)c1-c1cc(C)nc(C(F)F)c1` [Example 300, 3-(4-(((2-amino-5-(2-(difluoromethyl)-6-methylpyridin-4-yl)-6-(4-fluorophenyl)pyrimidin-4-yl)oxy)methyl)-5-ethyl-2H-1,2,3-triazol-2-yl)-2,2-dimethylpropanoic acid], the IC50 was more than 10000 nM. Regarding `Cc1cc(-c2c(OCc3ccnc(C(C)(C)C#N)c3)nc(N)nc2-c2ccc(F)cc2)cc(C(F)F)n1` [Example 277, 2-(4-(((2-amino-5-(2-(difluoromethyl)-6-methylpyridin-4-yl)-6-(4-fluorophenyl)pyrimidin-4-yl)oxy)methyl)pyridin-2-yl)-2-methylpropanenitrile], the IC50 is 455 nM. For the compound `Cc1cc(-c2c(OC[C@H]3CC[C@@H](C(=O)O)CC3)nc(N)nc2-c2ccc(F)cc2)cc(C(F)F)n1` [Example 278, (1,4-cis)-4-(((2-amino-5-(2-(difluoromethyl)-6-methylpyridin-4-yl)-6-(4-fluorophenyl)pyrimidin-4-yl)oxy)methyl)cyclohexane-1-carboxylic acid], the IC50 is 19900 nM.

As for `CCc1nnn(CC(C)(C)C(=O)O)c1COc1nc(N)nc(-c2ccc(F)cc2)c1-c1cc(C)nc(C(F)F)c1` [Example 301, 3-(5-(((2-amino-5-(2-(difluoromethyl)-6-methylpyridin-4-yl)-6-(4-fluorophenyl)pyrimidin-4-yl)oxy)methyl)-4-ethyl-1H-1,2,3-triazol-1-yl)-2,2-dimethylpropanoic acid], the IC50 was more than 10000 nM. On the same count and under the same terms, in the case of `Cc1cc(-c2c(OCc3nc4ccc(C(C)(C)O)cc4n3C)nc(N)nc2-c2ccc(F)cc2)cc(C(F)F)n1` [Example 358, 2-(2-(((2-amino-5-(2-(difluoromethyl)-6-methylpyridin-4-yl)-6-(4-fluorophenyl)pyrimidin-4-yl)oxy)methyl)-1-methyl-1H-benzo[d]imidazol-6-yl)propan-2-ol] it was 940 nM and 1060 nM; in that of `Cc1cc(-c2c(OCCn3cccc(C(=O)O)c3=O)nc(N)nc2-c2ccc(F)cc2)cc(C(F)F)n1` [Example 335, 1-(2-((2-amino-5-(2-(difluoromethyl)-6-methylpyridin-4-yl)-6-(4-fluorophenyl)pyrimidin-4-yl)oxy)ethyl)-2-oxo-1,2-dihydropyridine-3-carboxylic acid], more than 25000 nM; in that of `Cc1cc(-c2c(OCc3ncc(C(C)(O)C(=O)O)n3C)nc(N)nc2-c2ccc(F)cc2)cc(C(F)F)n1` (centres unmarked) [Example 395, 2-(2-(((2-amino-5-(2-(difluoromethyl)-6-methylpyridin-4-yl)-6-(4-fluorophenyl)pyrimidin-4-yl)oxy)methyl)-1-methyl-1H-imidazol-5-yl)-2-hydroxypropanoic acid], more than 50000 nM. For `Cc1cc(-c2c(OCc3ncc(C(C)(C)O)s3)nc(N)nc2-c2ccc(F)cc2)cc(C(F)F)n1` [Example 371, 2-(2-(((2-amino-5-(2-(difluoromethyl)-6-methylpyridin-4-yl)-6-(4-fluorophenyl)pyrimidin-4-yl)oxy)methyl)thiazol-5-yl)propan-2-ol], the IC50 was 2360 nM. Still for that read-out and setting: next, `Cc1cc(-c2c(OCc3cccc(C4(C#N)CCOCC4)n3)nc(N)nc2-c2ccc(F)cc2)cc(C(F)F)n1` [Example 275, 4-(6-(((2-amino-5-(2-(difluoromethyl)-6-methylpyridin-4-yl)-6-(4-fluorophenyl)pyrimidin-4-yl)oxy)methyl)pyridin-2-yl)tetrahydro-2H-pyran-4-carbonitrile]: 321 nM; `Cc1cc(-c2c(OCc3ccn(CC(C)(C)O)n3)nc(N)nc2-c2ccc(F)cc2)cc(C(F)F)n1` [Example 258, 1-(3-(((2-amino-5-(2-(difluoromethyl)-6-methylpyridin-4-yl)-6-(4-fluorophenyl)pyrimidin-4-yl)oxy)methyl)-1H-pyrazol-1-yl)-2-methylpropan-2-ol]: 2390 nM; `Cc1cc(-c2c(OCc3ccc4ccccc4n3)nc(N)nc2-c2ccc(F)cc2)cc(C(F)F)n1` [Example 380, 5-(2-(difluoromethyl)-6-methylpyridin-4-yl)-4-(4-fluorophenyl)-6-(quinolin-2-ylmethoxy)pyrimidin-2-amine]: 548 nM and 469 nM and 502 nM. For the compound `CCc1nnn(CC)c1COc1nc(N)nc(-c2cccc(C#N)c2C)c1-c1cc(C)nc(C(F)F)c1` [Example 255, 3-(2-amino-6-((1,4-diethyl-1H-1,2,3-triazol-5-yl)methoxy)-5-(2-(difluoromethyl)-6-methylpyridin-4-yl)pyrimidin-4-yl)-2-methylbenzonitrile], the IC50 was more than 25000 nM. Turning to `Cc1cc(-c2c(OCc3cccc(N4CC(C)(O)C4)n3)nc(N)nc2-c2ccc(F)cc2)cc(C(F)F)n1` [Example 260, 1-(6-(((2-amino-5-(2-(difluoromethyl)-6-methylpyridin-4-yl)-6-(4-fluorophenyl)pyrimidin-4-yl)oxy)methyl)pyridin-2-yl)-3-methylazetidin-3-ol], the IC50 was 1360 nM.
